Test results taken from patent US20120178766A1, “FUROPYRIMIDINEDIONE DERIVATIVES AS TRPAI MODULATORS” (priority 2009, published 2012).

Assays:
human TRPA1 = target: T1, human TRPA1 (Homo sapiens, UniProt O75762); assay: 45Calcium uptake assay: inhibition of AITC induced cellular uptake of radioactive calcium, human TRPA1 expressing CHO cells; type: cell-based; settings: AITC 30 μM; for inhibition at 1 µM: 1.0 μM compound, read-out: human TRPA1 Percentage inhibition at 1.0 μM; for inhibition at 10 µM: 10.0 μM compound, read-out: human TRPA1 Percentage inhibition at 10.0 μM; for IC50: class symbols
T1 construct: expressed in transfected cells; host or cells: CHO cells (G-418 selection)
Text: The illustrative examples of the present invention are screened for TRPA1 activity according to a modified procedure described in (a) Tóth, A. et al. Life Sciences, 2003, 73, 487-498. (b) McNamara C, R. et al, Proc. Natl. Acad. Sci. U.S.A., 2007, 104, 13525-13530. The screening of the compounds can be carried out by other methods and procedures known to persons skilled in the art.
(§1) Screening for TRPA1 Antagonist Using the ^45Calcium Uptake Assay:
(§2) The inhibition of TRPA1 receptor activation was measured as inhibition of allyl isothiocyanate (AITC) induced cellular uptake of radioactive calcium.
Test compounds were dissolved in 100% DMSO to prepare 10 mM stock and then diluted using plain medium with 0.1% BSA and 1.8 mM CaCl2 to get the desired concentration. The final concentration of DMSO in the reaction was 0.5% (v/v). Human TRPA1 expressing CHO cells were grown in F-12 DMEM medium with 10% FBS, 1% penicillin-streptomycin solution, and 400 μg/ml of G-418. Rat TRPA1 expressing CHO cells were grown in F-12 DMEM medium with 10% FBS, 1% penicillin-streptomycin solution, and 400 μg/ml of Zeocin. Cells were seeded 24 h prior to the assay in 96 well plates so as to get ˜50,000 cells per well on the day of experiment. Cells were treated with the test compounds for 10 minutes followed by the addition of AITC at a final concentration of 30 μM (for human TRPA1) and/or 10 μM (for rat TRPA1) and 5 μCi/ml ^45Ca^+2 for 3 minutes. Cells were washed and lysed using a buffer containing 1% Triton X-100, 0.1% deoxycholate and 0.1% SDS. Radioactivity in the lysate was measured in a Packard TopCount after addition of liquid scintillant. (Toth et al, Life Sciences (2003) 73, 487-498; McNamara C R et al, Proceedings of the National Academy of Sciences, (2007) 104, 13525-13530).
(§3) Concentration response curves were plotted as a % of maximal response obtained in the absence of test antagonist. IC50 values can be calculated from concentration response curve by nonlinear regression analysis using GraphPad PRISM software.

rat TRPA1 = target: T2, rat TRPA1 (Rattus norvegicus, UniProt Q6RI86); assay: 45Calcium uptake assay: inhibition of AITC induced cellular uptake of radioactive calcium, rat TRPA1 expressing CHO cells; type: cell-based; settings: AITC 10 μM; for inhibition at 10 µM: 10.0 μM compound, read-out: rat TRPA1 Percentage inhibition at 10.0 μM; for inhibition at 1 µM: read-out: rat TRPA1 Percentage inhibition; for IC50: class symbols
T2 construct: expressed in transfected cells; host or cells: CHO cells (Zeocin selection)
Method: as §1, §2
Test compounds were dissolved in 100% DMSO to prepare 10 mM stock and then diluted using plain medium with 0.1% BSA and 1.8 mM CaCl2 to get the desired concentration. The final concentration of DMSO in the reaction was 0.5% (v/v). […] Rat TRPA1 expressing CHO cells were grown in F-12 DMEM medium with 10% FBS, 1% penicillin-streptomycin solution, and 400 μg/ml of Zeocin. […] Cells were treated with the test compounds for 10 minutes followed by the addition of AITC at a final concentration of 30 μM (for human TRPA1) and/or 10 μM (for rat TRPA1) and 5 μCi/ml ^45Ca^+2 for 3 minutes. Cells were washed and lysed using a buffer containing 1% Triton X-100, 0.1% deoxycholate and 0.1% SDS. Radioactivity in the lysate was measured in a Packard TopCount after addition of liquid scintillant.
as §3

T1 sequence (O75762 whole entry): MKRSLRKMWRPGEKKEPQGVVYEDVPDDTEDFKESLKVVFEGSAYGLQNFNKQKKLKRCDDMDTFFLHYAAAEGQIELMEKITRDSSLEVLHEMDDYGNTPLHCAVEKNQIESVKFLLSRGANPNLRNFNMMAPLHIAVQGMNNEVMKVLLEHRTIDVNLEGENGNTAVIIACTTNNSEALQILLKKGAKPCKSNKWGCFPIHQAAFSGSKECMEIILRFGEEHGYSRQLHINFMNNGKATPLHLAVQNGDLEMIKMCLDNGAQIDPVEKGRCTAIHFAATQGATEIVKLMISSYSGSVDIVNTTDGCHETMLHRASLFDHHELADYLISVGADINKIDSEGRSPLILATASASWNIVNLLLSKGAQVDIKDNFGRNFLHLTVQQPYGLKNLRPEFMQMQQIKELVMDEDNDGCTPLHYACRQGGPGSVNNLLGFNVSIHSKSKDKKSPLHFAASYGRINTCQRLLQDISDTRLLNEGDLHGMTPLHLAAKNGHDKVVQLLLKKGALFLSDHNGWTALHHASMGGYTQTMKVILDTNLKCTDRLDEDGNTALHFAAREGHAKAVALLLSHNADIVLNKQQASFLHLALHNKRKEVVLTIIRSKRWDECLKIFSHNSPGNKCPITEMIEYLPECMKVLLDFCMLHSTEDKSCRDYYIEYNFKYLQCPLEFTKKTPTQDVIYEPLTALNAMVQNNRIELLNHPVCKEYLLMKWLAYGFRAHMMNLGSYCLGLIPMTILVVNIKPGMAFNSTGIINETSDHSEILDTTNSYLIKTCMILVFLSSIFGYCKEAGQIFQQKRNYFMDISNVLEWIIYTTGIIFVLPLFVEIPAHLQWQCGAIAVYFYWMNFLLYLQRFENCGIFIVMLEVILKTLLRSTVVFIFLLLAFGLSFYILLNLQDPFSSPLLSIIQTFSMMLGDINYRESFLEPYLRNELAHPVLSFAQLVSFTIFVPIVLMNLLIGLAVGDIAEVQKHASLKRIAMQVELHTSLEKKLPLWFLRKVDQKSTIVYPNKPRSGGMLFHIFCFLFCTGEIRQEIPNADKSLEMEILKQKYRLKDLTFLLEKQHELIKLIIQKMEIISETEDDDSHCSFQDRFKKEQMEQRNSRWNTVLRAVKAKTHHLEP
T2 sequence (Q6RI86 whole entry): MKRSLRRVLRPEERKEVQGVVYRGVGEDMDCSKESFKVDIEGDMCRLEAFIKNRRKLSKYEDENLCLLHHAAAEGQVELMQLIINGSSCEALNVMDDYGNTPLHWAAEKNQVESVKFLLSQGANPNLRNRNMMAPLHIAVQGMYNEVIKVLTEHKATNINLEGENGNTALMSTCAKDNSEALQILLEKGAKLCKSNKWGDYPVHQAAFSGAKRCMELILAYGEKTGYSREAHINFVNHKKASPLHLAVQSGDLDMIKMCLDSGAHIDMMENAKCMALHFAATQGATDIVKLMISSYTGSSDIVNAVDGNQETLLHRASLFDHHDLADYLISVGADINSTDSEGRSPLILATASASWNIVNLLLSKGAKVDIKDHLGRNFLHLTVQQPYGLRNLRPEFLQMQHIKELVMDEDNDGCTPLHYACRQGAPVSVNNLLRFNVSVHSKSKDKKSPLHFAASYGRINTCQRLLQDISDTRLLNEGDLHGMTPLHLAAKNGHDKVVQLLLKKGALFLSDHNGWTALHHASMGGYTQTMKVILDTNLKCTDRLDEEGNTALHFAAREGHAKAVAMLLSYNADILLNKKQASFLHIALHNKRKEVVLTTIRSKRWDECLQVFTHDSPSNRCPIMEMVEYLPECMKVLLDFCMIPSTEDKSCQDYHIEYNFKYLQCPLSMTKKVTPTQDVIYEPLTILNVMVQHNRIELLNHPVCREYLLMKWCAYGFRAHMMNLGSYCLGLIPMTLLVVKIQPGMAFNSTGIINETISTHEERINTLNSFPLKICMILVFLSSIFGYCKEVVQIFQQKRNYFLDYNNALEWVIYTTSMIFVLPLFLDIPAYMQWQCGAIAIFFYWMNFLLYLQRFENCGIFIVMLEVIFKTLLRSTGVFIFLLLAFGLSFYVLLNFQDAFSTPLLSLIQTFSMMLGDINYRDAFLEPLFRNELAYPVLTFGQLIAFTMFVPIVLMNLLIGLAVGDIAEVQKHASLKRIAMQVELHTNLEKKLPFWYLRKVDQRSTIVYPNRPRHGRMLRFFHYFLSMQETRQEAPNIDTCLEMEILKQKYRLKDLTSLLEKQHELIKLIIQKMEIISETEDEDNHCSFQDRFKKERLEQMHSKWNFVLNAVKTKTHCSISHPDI

SMILES | inhibition at 1 µM (human TRPA1) [%] | inhibition at 10 µM (human TRPA1) [%] | IC50 (human TRPA1) [nM] | inhibition at 10 µM (rat TRPA1) [%] | inhibition at 1 µM (rat TRPA1) [%] | IC50 (rat TRPA1) [nM]
Cn1c(=O)c2c(CC(=O)Nc3nc(-c4ccc(Cl)c(OC(F)(F)F)c4)cs3)coc2n(C)c1=O [Example 19, N1-{4-[4-Chloro-3-(trifluoromethoxy)phenyl]-1,3-thiazol-2-yl]-2-(1,3-dimethyl-2,4-dioxo-1,2,3,4-tetrahydrofuro[2,3-d]pyrimidin-5-yl)acetamide] | 99.9 | 100 | < 50 | 98.2 | 98.9 | 50 to 100
Cn1c(=O)c2c(CC(=O)Nc3nc(-c4cccc(C(F)(F)F)c4F)cs3)coc2n(C)c1=O [Example 20, N1-{4-[2-Fluoro-3-(trifluoromethyl)phenyl]-1,3-thiazol-2-yl}-2-(1,3-dimethyl-2,4-dioxo-1,2,3,4-tetrahydrofuro[2,3-d]pyrimidin-5-yl)acetamide] | 98.5 | 97.5 | < 50 | 99.8 | 96.8 | < 50
Cn1c(=O)c2c(CC(=O)Nc3nc(-c4cc(F)cc(C(F)(F)F)c4)cs3)coc2n(C)c1=O [Example 21, N1-{4-[3-Fluoro-5-(trifluoromethyl)phenyl]-1,3-thiazol-2-yl}-2-(1,3-dimethyl-2,4-dioxo-1,2,3,4-tetrahydrofuro[2,3-d]pyrimidin-5-yl)acetamide] | 99.8 | 99.8 | < 50 | 99.9 | 98.9 | < 50
Cn1c(=O)c2c(CC(=O)Nc3nc(-c4ccc(C(F)(F)F)cc4F)cs3)coc2n(C)c1=O [Example 22, N1-{4-[2-Fluoro-4-(trifluoromethyl)phenyl]-1,3-thiazol-2-yl}-2-(1,3-dimethyl-2,4-dioxo-1,2,3,4-tetrahydrofuro[2,3-d]pyrimidin-5-yl)acetamide] | 99.3 | 98.5 | < 50 | 100 | 100 | –

The next lines start with the values.

inhibition at 1 µM (human TRPA1) [%] | inhibition at 10 µM (human TRPA1) [%] | IC50 (human TRPA1) [nM] | inhibition at 10 µM (rat TRPA1) [%] | inhibition at 1 µM (rat TRPA1) [%] | IC50 (rat TRPA1) [nM] | SMILES
99.9 | 99.8 | < 50 | 99 | 100 | < 50 | Cn1c(=O)c2c(CC(=O)Nc3nc(-c4ccc(F)c(C(F)(F)F)c4)cs3)coc2n(C)c1=O [Example 15, N1-{4-[4-Fluoro-3-(trifluoromethyl)phenyl]-1,3-thiazol-2-yl}-2-(1,3-dimethyl-2,4-dioxo-1,2,3,4-tetrahydrofuro[2,3-d]pyrimidin-5-yl)acetamide]
98.5 | 99.2 | < 50 | 98.6 | 100 | < 50 | Cn1c(=O)c2c(CC(=O)Nc3nc(-c4ccc(F)c(OC(F)(F)F)c4)cs3)coc2n(C)c1=O [Example 16, N1-{4-[4-Fluoro-3-(trifluoromethoxy)phenyl]-1,3-thiazol-2-yl}-2-(1,3-dimethyl-2,4-dioxo-1,2,3,4-tetrahydrofuro[2,3-d]pyrimidin-5-yl)acetamide]
99.9 | 100 | < 50 | 99.8 | 97.7 | 50 to 100 | Cn1c(=O)c2c(CC(=O)Nc3nc(-c4ccc(OC(F)(F)F)c(F)c4)cs3)coc2n(C)c1=O [Example 17, N1-{4-[3-Fluoro-4-(trifluoromethoxy)phenyl]-1,3-thiazol-2-yl}-2-(1,3-dimethyl-2,4-dioxo-1,2,3,4-tetrahydrofuro[2,3-d]pyrimidin-5-yl)acetamide]
99.9 | 100 | < 50 | 94.1 | 99.9 | 50 to 100 | Cn1c(=O)c2c(CC(=O)Nc3nc(-c4ccc(Cl)c(C(F)(F)F)c4)cs3)coc2n(C)c1=O [Example 18, N1-{4-[4-Chloro-3-(trifluoromethyl)phenyl]-1,3-thiazol-2-yl}-2-(1,3-dimethyl-2,4-dioxo-1,2,3,4-tetrahydrofuro[2,3-d]pyrimidin-5-yl)acetamide]
